According to publication PMC6009905, “Kushenol A and 8-prenylkaempferol, tyrosinase inhibitors, derived from Sophora flavescens” (Journal of Enzyme Inhibition and Medicinal Chemistry, 2018):
Values joined by “and” are separate entries in the source; they are usually repeats but may differ in a detail not shown here. Equal entries are not always repeated.

Experiments:
tyrosinase [1] = biological target: tyrosinase; design: method as in PMID 12951485, PMID 18175961; settings: read-out: IC50 on tyrosinase (previous report); cited from earlier work
tyrosinase [2] = biological target: T1, tyrosinase (Agaricus bisporus, UniProt C7FF04); assay: Tyrosinase assay (conversion of L-tyrosine to L-DOPA, UV-Vis 475 nm); type: biochemical; design: purchased Sigma-Aldrich T3824; settings: L-tyrosine substrate, triplicate; for inhibition at 100 µM: 100 μM inhibitor, read-out: Inhibitory activity of compounds on tyrosinase, 100 μM (%); for IC50: read-out: Inhibitory activity of compounds on tyrosinase, IC50
Method: (§1) Enzyme assay was performed according to the modified methods in the previous papers. For the calculation of inhibitory activity, 130 μL of tyrosinase (about 46 units/mL) solvated in 0.1 mM phosphate buffer (pH: 6.8) and 20 μL of 1–0.0078 mM concentrations of the inhibitors were mixed in a 96-well plate, and then 50 μL of 2 mM L-tyrosine in buffer was added in mixture. To test the enzyme kinetic study, 130 μL of tyrosinase and 20 μL of inhibitor were also mixed, and then 50 μL of 0.62–10 mM L-tyrosine was added in a 96-well plate.
Target sequence in this assay (C7FF04 1-392 limits assumed): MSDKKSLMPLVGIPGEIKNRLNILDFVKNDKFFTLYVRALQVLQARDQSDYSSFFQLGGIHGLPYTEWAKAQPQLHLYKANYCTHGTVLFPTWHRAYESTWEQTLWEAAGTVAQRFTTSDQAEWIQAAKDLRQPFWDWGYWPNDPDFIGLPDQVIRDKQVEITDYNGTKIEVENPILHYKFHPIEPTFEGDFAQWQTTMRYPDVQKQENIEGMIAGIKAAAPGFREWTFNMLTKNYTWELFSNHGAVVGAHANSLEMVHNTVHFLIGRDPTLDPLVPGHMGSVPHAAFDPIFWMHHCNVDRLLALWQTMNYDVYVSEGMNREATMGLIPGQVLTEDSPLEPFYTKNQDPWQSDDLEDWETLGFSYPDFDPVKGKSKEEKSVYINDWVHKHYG

ABTS radical assay = settings: triplicate; for IC50: log-dose inhibition curve, read-out: Scavenging activity of compounds on ABTS radical, SC50
Method: The ABTS radical cation assay was modified the method of Re et al.[15] Briefly, the mixture of 7.4 mM ABTS solution with 2.6 mM potassium persulfate incubated at room temperature in dark for 24 h. […] Fifty microliter of the inhibitor was reacted with 950 μL of the ABTS solution. Absorbance value was monitored during 10 min at 732 nm using a spectrophotometer. The free radical value (SC50) was calculated by the log-dose inhibition curve. Scavenging activity (%)=[1–(extract absorbance/control absorbance)]×100.

tyrosinase [3] = biological target: T1, tyrosinase; assay: Tyrosinase enzyme kinetics (Lineweaver-Burk plots, secondary re-plot); type: biochemical; settings: 0.62-10 mM L-tyrosine
Method: as §1, with “plate. The mixture was recorded at UV-Vis 475 nm during 20 min. The inhibitory ratio was calculated according to the following equation: Inhibitory activity rate (%)=100–[(S20–S0/C20–C0]×100 where C20 and S20 are the intensity of control and inhibitor after 20 min, C0 and S0 are the intensity of control and inhibitor at 0 min.” for “plate.”
Target sequence in this assay (C7FF04 2-392): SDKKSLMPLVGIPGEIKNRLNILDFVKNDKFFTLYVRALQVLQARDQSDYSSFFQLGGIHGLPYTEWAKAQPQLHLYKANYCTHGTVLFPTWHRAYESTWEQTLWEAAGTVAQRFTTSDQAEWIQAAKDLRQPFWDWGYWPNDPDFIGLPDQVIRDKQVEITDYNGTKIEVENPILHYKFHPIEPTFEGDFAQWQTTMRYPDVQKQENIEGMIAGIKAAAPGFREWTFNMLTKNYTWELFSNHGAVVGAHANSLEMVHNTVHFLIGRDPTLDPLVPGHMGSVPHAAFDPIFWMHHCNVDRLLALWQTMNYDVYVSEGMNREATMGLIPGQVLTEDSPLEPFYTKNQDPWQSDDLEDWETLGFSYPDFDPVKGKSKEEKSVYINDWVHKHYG
This study confirmed the inhibitory mechanism of compounds 1–4 towards tyrosinase using enzyme kinetics. Enzyme kinetics were performed based on academic methods that examine a variety of substrate concentrations. The results were represented by Lineweaver–Burk plots, which confirmed the inhibition to […]. […]

HepG2 cells = assay: Measurement of intracellular ROS in H2O2-treated HepG2 cells; type: cell-based, Human; settings: 10 μM inhibitor 1 h, then 2 mM H2O2 30 min; negative control 100.0%, positive control 701.5%
Method: Human hepatoma HepG2 cells were cultured in DMEM supplemented with 10% FBS, 100 units/mL of penicillin and 100 μg/mL of streptomycin. Cells were maintained incubation at 37 °C under a 5% CO2[16].
The concentration of intracellular ROS was measured using a carboxy-H2DCFDA probe, as previously described. HepG2 cells were seeded into six-well plates at a density of 1 × 10^5 cells/mL and incubated for 24 h. After treatment with 10 μM concentrations of inhibitors 1–5 for 1 h, H2O2 (2 mM) was added to plates for 30 min. Cells were then incubated with 10 μM carboxy-H2DCFDA for 20 min, then cells were washed and harvested. Cells were immediately examined using a flow cytometer (Cytomics FC500; Beckman, Miami, FL).
To examine their antioxidant activity in vitro, pure compounds 1–5 were added to HepG2 cells, followed by addition of 2 mM H2O2. As shown in Figure 5(A), the respective negative (H2O2: –; I: –) and positive (H2O2: +; I: –) controls generated reactive oxygen species (ROS) of 100.0% ± 9.1% and 701.5% ± 46.9%. […] The viability of HepG2 cells following treatment with all compounds 1–5 at 10 μM ranged from 100.1% ± 6.1% to 103.8% ± 5.1% (Figure S6). Compound 2 caused an […].

Structure (SMILES)	IC50 (tyrosinase [1])	inhibition at 100 µM (tyrosinase [2])	IC50 (tyrosinase [2])	Scavenging activity of compounds on ABTS radical, 25 μM (%) (ABTS radical assay)	IC50 (ABTS radical assay)	Binding mode (tyrosinase [3])	ROS generation (HepG2 cells)
C=C(C)[C@H](CC=C(C)C)Cc1c(O)cc(OC)c2c1O[C@H](c1ccc(O)cc1O)CC2=O [kurarinone]	6.2 µM	–	–	–	–	–	–
C=C(C)[C@H](CC=C(C)C)Cc1c(O)cc(O)c2c1O[C@H](c1ccccc1O)CC2=O [Compound 1, kushenol A]	–	101 ± 3.3%	< 10 µM and 1.1 µM	93.7 ± 0.3%	9.7 ± 0.1 µM	non-competitive inhibitors	–
C=C(C)[C@H](CC=C(C)C)Cc1c(O)cc(OC)c(C(=O)/C=C/c2ccc(O)cc2O)c1O [kuraridin]	0.6 µM	–	–	–	–	–	–
CC(C)=CCc1c(O)cc(O)c2c(=O)c(O)c(-c3ccc(O)cc3)oc12 [Compound 2, 8-prenylkaempferol]	–	90.4 ± 3%	< 10 µM and 2.4 µM	93.2 ± 0.2%	7.9 ± 0.3 µM	competitive inhibitor	435.3% ± 43.0%
CC(C)=CCc1c(O)cc(O)c2c1O[C@H](c1ccc(O)cc1)CC2=O [Compound 5, 8-prenylnaringenin]	–	27 ± 2.9%	–	91.5 ± 0.1%	7 ± 0.2 µM	–	–
C=C(C)[C@H](CC=C(C)C)Cc1c(O)cc(O)c2c1O[C@H](c1ccc(O)cc1O)CC2=O [sophoraflavanone G]	6.6 µM	–	–	–	–	–	–
O=C1O[C@H]([C@@H](O)CO)C(O)=C1O [Ascorbic acid, reference compound]	–	–	–	44.9 ± 0.9%	27.8 ± 0.5 µM	–	–
COc1ccc(-c2coc3cc(O)ccc3c2=O)cc1 [Compound 4, formononetin]	–	91.9 ± 2%	19.9 ± 1.7 µM	53.3 ± 2.4%	22.8 ± 1.1 µM	non-competitive inhibitors	–
C=C(C)C(CCC(C)(C)O)Cc1c(O)cc(OC)c(C(=O)/C=C/c2ccc(O)cc2O)c1O (stereo not shown) [kuraridinol]	0.8 µM	–	–	–	–	–	–
C=C(C)C(CC=C(C)C)Cc1c(O)cc(O)c2c(=O)c(O)c(-c3ccc(O)cc3O)oc12 (stereo not shown) [Compound 3, kushenol C]	–	81.1 ± 0.1%	24.1 ± 2.3 µM	94.1 ± 0.2%	4.9 ± 0.3 µM	non-competitive inhibitors	391.7% ± 56.3%
